Data taken from patent publication US11883387B2, “PqsR inverse agonists” (HELMHOLTZ-ZENTRUM FÜR INFEKTIONSFORSCHUNG GMBH, priority 2018, dated 2024).

How the values were obtained:
[1] = biological target: PqsR (Pseudomonas aeruginosa, UniProt Q9I4X0); experiment: E. coli based β-galactosidase reporter gene assay (PqsR inverse agonistic activity); assay type: cell-based; design: expressed in transfected cells; host or cells: Escherichia coli DH5α
Procedure, shortened: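 E. coli DH5α carrying pEAL08-2 (tac-driven pqsR with pqsA-lacZ) was grown to OD600 0.2 and incubated with 0.001–10 μM compound plus 50 nM PQS for 2.5 h at 37 °C. β-Galactosidase activity was measured by ONPG conversion in permeabilized cells and normalized between the no-PQS and solvent controls. IC50 came from concentration variation.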

[2] = Metabolic stability in mouse liver microsomes (MLM); assay type: in vitro ADME; conditions: 1 μM compound, 0.5 mg/mL MLM, 1 mM NADPH, 37° C., read-out: half-life (t1/2) towards MLM
Description: For the evaluation of phase I metabolic stability, the compound (1 μM) was incubated with 0.5 mg/mL MLM (Corning) and 1 mM NADPH at 37° C. for 0, 5, 10, 15 and 30 min. The metabolic stability of Verapamil, Diphenhydramine and Benzydamine (1 μM each) were determined in parallel to confirm the enzymatic activity of the MLM. The incubation was stopped by addition of 2 volumes of acetonitrile containing internal standard (1 μM Leucine Enkephaline). Samples were centrifuged (15 min, 3,500 rpm). Concentration of the remaining test compound at the different time points was analyzed by HPLC-MS/MS and used to determine half-life (t1/2).

[3] = system: P. aeruginosa pyocyanin production; experiment: Pyocyanin assay; assay type: cell-based, P. aeruginosa PA14; conditions: Pseudomonas aeruginosa, PA14, 16 h, read-out: IC50-value towards pyocyanin production, PA14 in PPGAS medium, 16 h
Procedure, shortened: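 PA14 in PPGAS medium from OD600 0.02 grown 16 h at 37 °C, 200 rpm, with compounds. Pyocyanin extracted with chloroform, back-extracted into 0.2 M HCl, OD520 normalised to OD600.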

[4] = Kinetic Turbidimetric Aqueous Solubility at room temperature for 5 min; assay type: physicochemical; conditions: PBS buffer, kinetic from dmso stock, 2% DMSO
Procedure, shortened: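 Compound diluted in PBS across typically 0.4–200 μM (final DMSO 2%), held 5 min at room temperature. Turbidity read as absorbance at 620 nm against vehicle control. Four-parameter sigmoidal fit of normalized absorbances with AUC calculation gives Log S.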

PqsR, sequence (Q9I4X0 whole entry): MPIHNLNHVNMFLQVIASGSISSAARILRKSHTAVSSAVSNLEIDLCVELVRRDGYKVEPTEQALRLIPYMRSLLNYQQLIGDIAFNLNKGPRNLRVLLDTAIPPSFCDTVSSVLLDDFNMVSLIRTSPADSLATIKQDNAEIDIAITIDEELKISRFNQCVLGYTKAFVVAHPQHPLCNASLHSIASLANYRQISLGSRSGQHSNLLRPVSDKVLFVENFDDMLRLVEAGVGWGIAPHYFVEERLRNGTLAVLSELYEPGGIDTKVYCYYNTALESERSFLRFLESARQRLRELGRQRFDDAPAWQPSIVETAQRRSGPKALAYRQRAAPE

| solubility at 5 min [4] | SMILES | IC50 [1] | half-life at 1 μM [2] | IC50 [3] |
| --- | --- | --- | --- | --- |
| – | FC(F)(F)c1cc(NCc2cn(-c3ccc(Oc4ccccc4)cc3)nn2)cc(Cl)n1 [Compound 032, 2-Chloro-N-((1-(4-phenoxyphenyl)-1H-1,2,3-triazol-4-yl)methyl)-6-(trifluoromethyl)pyridin-4-amine] | ≤ 50 nM | > 60 min | – |
| – | Fc1ccc(Oc2ccc(-c3nc(CNc4ccnc(C(F)(F)F)c4)cs3)cc2)cc1 [Compound 088, N-((2-(4-(4-Fluorophenoxy)phenyl)thiazol-4-yl)methyl)-2-(trifluoromethyl)pyridin-4-amine] | ≤ 50 nM | > 60 min | – |
| – | FC(F)(F)c1cc(NCc2cnc(-c3ccc(Oc4ccccc4)cc3)s2)cc(Cl)n1 [Compound 092, 2-Chloro-N-((2-(4-phenoxyphenyl)thiazol-5-yl)methyl)-6-(trifluoromethyl)pyridin-4-amine] | ≤ 50 nM | 31 to 60 min | 251 to 1000 nM |
| – | Fc1ccc(Oc2ccc(-c3nc(CNc4ccnc(C(F)(F)F)c4)cs3)cn2)cc1 [Compound 083, N-((2-(6-(4-Fluorophenoxy)pyridin-3-yl)thiazol-4-yl)methyl)-2-(trifluoromethyl)pyridin-4-amine] | 51 to 250 nM | > 60 min | – |
| – | Clc1cc(NCc2cnc(-c3ccc(Oc4ccccc4)cc3)s2)ccn1 [Compound 093, 2-Chloro-N-((2-(4-phenoxyphenyl)thiazol-5-yl)methyl)pyridin-4-amine] | ≤ 50 nM | 31 to 60 min | 251 to 1000 nM |
| – | FC(F)(F)c1cc(NCc2cc(-c3ccc(Oc4ccccc4)cc3)no2)ccn1 [Compound 139, N-((3-(4-phenoxyphenyl)isoxazol-5-yl)methyl)-2-(trifluoromethyl)pyridin-4-amine] | ≤ 50 nM | 31 to 60 min | – |
| – | FC(F)(F)c1cc(NCc2ccc(-c3cccc(Oc4ccccc4)c3)cn2)ccn1 [Compound 103, N-((5-(3-Phenoxyphenyl)pyridin-2-yl)methyl)-2-(trifluoromethyl)pyridin-4-amine] | 251 to 1000 nM | 31 to 60 min | 1000 to 5000 nM |
| > 25 µM | COc1ccc(-c2ncc(CSc3cc(N)nc(C(F)(F)F)n3)s2)cc1Cl [Compound 069, 6-(((2-(3-chloro-4-methoxyphenyl)thiazol-5-yl)methyl)thio)-2-(trifluoromethyl) pyrimidin-4-amine] | – | > 60 min | – |
| – | FC(F)(F)c1cc(NCc2cn(-c3ccc(Oc4ccccc4)cc3)nn2)cc(I)n1 [Compound 007, 2-Iodo-N-((1-(4-phenoxyphenyl)-1H-1,2,3-triazol-4-yl)methyl)-6-(trifluoromethyl)pyridin-4-amine] | ≤ 50 nM | 31 to 60 min | 251 to 1000 nM |
| – | O=C(c1ccccc1)c1ccc(-n2cc(CSc3ccnc(C(F)(F)F)c3)nn2)cc1 [Compound 057, Phenyl(4-(4-(((2-(trifluoromethyl)pyridin-4-yl)thio)methyl)-1H-1,2,3-triazol-1-yl)phenyl)methanone] | 51 to 250 nM | > 60 min | – |
| > 10 µM | Nc1cc(SCc2cnc(-c3ccc(Oc4ccccc4)cc3)s2)nc(C(F)(F)F)n1 [Compound 068, 6-(((2-(4-phenoxyphenyl)thiazol-5-yl)methyl)thio)-2-(trifluoromethyl)pyrimidin-4-amine] | – | > 60 min | – |
| – | FC(F)(F)c1cc(NCc2cn(-c3ccc(Oc4cccc(Cl)c4)cc3)nn2)ccn1 [Compound 030, N-((1-(4-(3-Chlorophenoxy)phenyl)-1H-1,2,3-triazol-4-yl)methyl)-2-(trifluoromethyl)pyridin-4-amine] | ≤ 50 nM | > 60 min | – |
| – | Clc1cc(NCc2cn(-c3ccc(Oc4ccccc4)cc3)nn2)cc(Cl)n1 [Compound 048, 2,6-Dichloro-N-((1-(4-phenoxyphenyl)-1H-1,2,3-triazol-4-yl)methyl)pyridin-4-amine] | ≤ 50 nM | 31 to 60 min | ≤ 250 nM |
